ChEMBL document CHEMBL3508693 (2016)

How the values were obtained:
[1] = AUC of SPP100 following single intravenous dose of [14C] aliskiren hemifumarate at 1 mg.Kg-1 level in marmoset; assay type: ADME, organism-based, Callithrix jacchus, Plasma; details: in vivo
[2] = %Unchanged aliskiren in faeces following 10 day repeated oral administration of [14C] aliskiren hemifumarate at 100 mg.Kg-1 level studied in rat; assay type: ADME, organism-based, Albino HAN:WIST, Feces; details: in vivo, 240 h
[3] = % of radioactivity recovered as aliskiren in urine following oral administration of [14C] aliskiren hemifumarate at 100 mg.Kg-1 level in rat; assay type: ADME, organism-based, Albino HAN:WIST; details: in vivo
Cytochrome P450 2E1 = Cytochrome P450 2E1 (Homo sapiens, UniProt P05181); experiment: Activity of human recombinant CYP2E1 assessed as enzyme contribution (% total relative CL) towards [14C]SPP100 hemifumarate metabolism in human liver microsome; assay type: ADME; details: microsomes
[4] = Excretion of radioactivity (48-72h) in urine following single oral dose of 500 mg.Kg-1 [14C] aliskiren hemifumarate in mouse; assay type: ADME, organism-based, TgRasH2; details: in vivo
[5] = Excretion (0-168h) of 14C-radioactivity in faeces following single oral dose of 300 mg [14C]SPP100 studied in healthy men; assay type: ADME, organism-based, Feces; details: human, in vivo, at 300 mg
[6] = % of radioactivity (24h) recovered in faeces following single intravenous administration of 10 mg.Kg-1 [14C] aliskiren hemifumarate in male rat; assay type: ADME, organism-based, HAN:WIST(SPF), Feces; details: in vivo
[7] = Excretion of radioactivity (48-72h) in urine following single intravenous dose of 10 mg.Kg-1 [14C] aliskiren hemifumarate in mouse; assay type: ADME, organism-based, TgRasH2; details: in vivo
[8] = Concentration of radioactivity in the colon wall following repeated oral administration of [14C] aliskiren hemifumarate at 100 mg.Kg-1 level studied at 2h after 10th dose in rat; assay type: ADME, organism-based, Albino HAN:WIST; details: in vivo
[9] = Excretion (24h) of radioactivity in urine following intravenous administration of [14C] aliskiren hemifumarate at 10 mg.Kg-1 level in rat; assay type: ADME, organism-based, Lister-Hooded; details: in vivo
[10] = Excretion (0-96h) of 14C-radioactivity in faeces following single oral dose of 300 mg [14C]SPP100 studied in healthy men; assay type: ADME, organism-based, Feces; details: human, in vivo, at 300 mg
[11] = Concentration of radioactivity in the kidney medulla following repeated oral administration of [14C] aliskiren hemifumarate at 100 mg.Kg-1 level studied at 24h after 10th dose in rat; assay type: ADME, organism-based, Albino HAN:WIST, Renal medulla; details: in vivo
[12] = AUC (0-96h) of total radioactivity following oral administration of [14C] aliskiren hemifumarate at 100 mg.Kg-1 level in rat; assay type: ADME, organism-based, Albino HAN:WIST, Plasma; details: in vivo
[13] = Excretion of radioactivity (0-24h) in urine following single intravenous dose of 10 mg.Kg-1 [14C] aliskiren hemifumarate in rat; assay type: ADME, organism-based, Albino HAN:WIST; details: in vivo
[14] = Excretion (0-168h) of 14C-radioactivity in urine following single oral dose of 300 mg [14C]SPP100 studied in healthy men; assay type: ADME, organism-based; details: human, in vivo, at 300 mg
[15] = Elimination (0-96h) of radioactivity via biliary route following intravenous administration of [14C] aliskiren hemifumarate at 10 mg.Kg-1 level in rat; assay type: ADME, organism-based, Albino HAN:WIST, Bile; details: in vivo
[16] = Concentration of radioactivity in the brown fat following repeated oral administration of [14C] aliskiren hemifumarate at 100 mg.Kg-1 level studied at 24h after 10th dose in rat; assay type: ADME, organism-based, Albino HAN:WIST, Brown adipose tissue; details: in vivo
[17] = Excretion of radioactivity (0-24h) in urine following single oral dose of 100 mg.Kg-1 [14C] aliskiren hemifumarate in rat; assay type: ADME, organism-based, Albino HAN:WIST; details: in vivo
[18] = Cmax/dose of aliskiren hemifumarate following 4 week oral dietary dosing of aliskiren hemifumarate at 1500 mg.Kg-1 level in male mouse; assay type: ADME, organism-based, CB6F1-TGrasH2; details: in vivo, 672 h
[19] = AUC (0-24h) of aliskiren hemifumarate following 4 week oral dietary dosing of aliskiren hemifumarate at 1500 mg.Kg-1 level in male mouse; assay type: ADME, organism-based; details: CB6F1-TGrasH2, mouse, plasma
[20] = AUC(0-24h) of aliskiren hemifumarate following 2 week oral dosing of aliskiren hemifumarate at 10 mg.Kg-1 level studied on […] in male Callithrix jacchus; assay type: ADME, organism-based; details: marmoset, plasma
[21] = Cmax of aliskiren hemifumarate following 4 week oral dietary dosing of aliskiren hemifumarate at 500 mg.Kg-1 level in male mouse; assay type: ADME, organism-based; details: CB6F1-TGrasH2, mouse, in vivo
[22] = Effect of 2 week oral dosing of aliskiren hemifumarate at 100 mg.Kg-1 level on plasma creatinine level in female Callithrix jacchus; assay type: toxicity, organism-based; details: marmoset, 336 h
[23] = AUC of unlabeled aliskiren hemifumarate following single intravenous dose of aliskiren hemifumarate at 10 mg.Kg-1 level in mouse; assay type: ADME, organism-based; details: TgRasH2, mouse, plasma
[24] = Effect of 2 week oral dosing of aliskiren hemifumarate at 50 mg.Kg-1 level on hematological parameter values in female Callithrix jacchus; assay type: toxicity, organism-based, Plasma; details: marmoset, in vivo, 336 h
[25] = AUC (0-24h)/dose of aliskiren hemifumarate following 4 week oral dietary dosing of aliskiren hemifumarate at 1000 mg.Kg-1 level in male mouse; assay type: ADME, organism-based, CB6F1-TGrasH2, Plasma; details: in vivo
[26] = Cmaxspec of aliskiren hemifumarate following 2 week oral dosing of aliskiren hemifumarate at 100 mg.Kg-1 level studied on day 14 in female Callithrix jacchus; assay type: ADME, organism-based, Plasma; details: marmoset, in vivo, 336 h
[27] = AUC (0-24h)/dose of aliskiren hemifumarate following 4 week oral dietary dosing of aliskiren hemifumarate at 2000 mg.Kg-1 level in male mouse; assay type: ADME, organism-based, CB6F1-TGrasH2, Plasma; details: in vivo
[28] = AUC of aliskiren hemifumarate following single dosing of SPP100B oral solution at 640 mg level studied on day 1 in men; assay type: ADME, organism-based; details: male, human, plasma
[29] = Apparent terminal elimination half-life (0-96h) of unlabeled aliskiren hemifumarate following intravenous administration of aliskiren hemifumarate at 10 mg.Kg-1 level in rat; assay type: ADME, organism-based; details: Albino HAN:WIST, plasma
[30] = t1/2 of aliskiren hemifumarate following 2 week oral dosing of aliskiren hemifumarate at 100 mg.Kg-1 level studied on day 14 in male Callithrix jacchus; assay type: ADME, organism-based; details: marmoset, plasma
[31] = Cmax of aliskiren hemifumarate following 8 day once-daily dosing of SPP100B oral solution at 80 mg level studied on day 8 in men; assay type: ADME, organism-based; details: male, human, plasma
[32] = Plasma clearance (0-168h) of unlabeled aliskiren hemifumarate following single intravenous administration of aliskiren hemifumarate at 1 mg.Kg-1 level in marmoset; assay type: ADME, organism-based, Callithrix jacchus; details: in vivo
[33] = AUC (0-96h) of unlabeled aliskiren hemifumarate following oral administration of aliskiren hemifumarate at 100 mg.Kg-1 level in rat; assay type: ADME, organism-based; details: Albino HAN:WIST, plasma
[34] = Cmaxspec of aliskiren hemifumarate following 2 week oral dosing of aliskiren hemifumarate at 10 mg.Kg-1 level studied on day 14 in female Callithrix jacchus; assay type: ADME, organism-based, Plasma; details: marmoset, in vivo, 336 h

Sequence of Cytochrome P450 2E1 (P05181 whole entry): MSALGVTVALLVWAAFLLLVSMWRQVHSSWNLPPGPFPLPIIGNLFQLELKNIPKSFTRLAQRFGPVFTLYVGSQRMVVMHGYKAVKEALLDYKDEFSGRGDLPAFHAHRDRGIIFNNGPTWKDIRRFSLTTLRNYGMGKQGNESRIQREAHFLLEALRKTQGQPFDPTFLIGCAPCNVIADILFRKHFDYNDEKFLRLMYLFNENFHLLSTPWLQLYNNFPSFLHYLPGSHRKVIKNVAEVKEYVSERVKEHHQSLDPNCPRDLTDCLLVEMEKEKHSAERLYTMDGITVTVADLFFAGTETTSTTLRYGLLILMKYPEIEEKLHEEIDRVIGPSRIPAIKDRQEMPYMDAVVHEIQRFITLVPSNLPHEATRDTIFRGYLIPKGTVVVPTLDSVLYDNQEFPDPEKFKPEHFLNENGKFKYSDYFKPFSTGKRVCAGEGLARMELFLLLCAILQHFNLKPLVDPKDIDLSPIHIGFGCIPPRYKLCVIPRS

## COCCCOc1cc(C[C@@H](C[C@H](N)[C@@H](O)C[C@H](C(=O)NCC(C)(C)C(N)=O)C(C)C)C(C)C)ccc1OC
[1]
  AUC: 23806 ng·h/mL
[2]
  Compound recovery: 80%
[3]
  Compound recovery: <= 2%

## COCCCOc1cc(C[C@@H](C[C@H](N)[C@@H](O)C[C@H](C(=O)NCC([14CH3])([14CH3])C(N)=O)C(C)C)C(C)C)ccc1OC.O=C(O)/C=C/C(=O)O
Cytochrome P450 2E1
  Activity: 0.06%
[4]
  Radiolabel recovery: 0.34%
[5]
  Radiolabel recovery: 90.89%
[6]
  Radiolabel recovery: 4.6%
[7]
  Radiolabel recovery: 8.99%
[8]
  Radiolabel recovery: OUTCOME = Observed, VALUE = Highest radioactivity concentration was observed
[9]
  Radiolabel recovery: 10%
[10]
  Radiolabel recovery: 88.17%
[11]
  Radiolabel recovery: OUTCOME = Detected
[12]
  AUC: 5.38 µM·h
[12]; iv, 10 mg/kg
  AUC: 8.08 µM·h
[13]
  Radiolabel recovery: 35.6%
[14]
  Radiolabel recovery: 0.6%
[15]
  Radiolabel recovery: OUTCOME = Observed/Elimination of radioactivity was mainly via biliary route
[16]
  Radiolabel recovery: OUTCOME = Detected
[17]
  Radiolabel recovery: 0.47%

## COCCCOc1cc(C[C@@H](C[C@H](N)[C@@H](O)C[C@H](C(=O)NCC(C)(C)C(N)=O)C(C)C)C(C)C)ccc1OC.COCCCOc1cc(C[C@@H](C[C@H](N)[C@@H](O)C[C@H](C(=O)NCC(C)(C)C(N)=O)C(C)C)C(C)C)ccc1OC.O=C(O)/C=C/C(=O)O [ALISKIREN FUMARATE]
[18]
  Cmax normalised: 0.242 (ng/mL)/(mg/kg/day)
[19]
  AUC(0-t) at 24 h: 4140 ng·h/mL
[20]
  AUC at 24 h: 33900 ng·h/mL
[21]
  Cmax: 312 ng/mL
[22]
  CREAT_CHANGE_BY: 130%
[23]
  AUC: 9.03 µM·h
[24]
  Change in hematology: OUTCOME = Hematological parameter values did not differ from control values. No animals died during the study.
[25]
  AUC normalised: 4.82 ((ng/mL).hours)/(mg/kg/day)
[26]
  Cmax normalised: 0.106 (ug/ml)/(mg/kg)
[27]
  AUC normalised: 3.86 ((ng/mL).hours)/(mg/kg/day)
[28]
  AUC: 1190 ng·h/mL
[29]
  half-life: 23.1 h
[30]
  half-life: 7.8 h
[31]
  Cmax: 12.7 ng/mL
[32]
  Plasma clearance: 0.036 L·h/kg
[33]
  AUC(0-t) at 96 h: 3.01 µM·h
[34]
  Cmax normalised: 0.673 (ug/ml)/(mg/kg)
